From article PMC10850145, “Hormonal steroids induce multidrug resistance and stress response genes in Neisseria gonorrhoeae by binding to MtrR” (Nature Communications, 2024)
Values joined by “and” are separate entries in the source; they are usually repeats but may differ in a detail not shown here. Identical values can stand only once. Like-named read-outs stand apart in the source and are kept apart here.

Key:
MtrR = molecular target: T1, MtrR (Neisseria gonorrhoeae, UniProt P39897); experiment: Isothermal titration calorimetry, ligand binding to MtrR WT; conditions: ITC
T1 construct: Hexa-histidine tag with TEV protease cleavage site (N, cleaved yes); made in house; host or cells: E. coli Rosetta Gami B(DE3) pLysS
T1 sequence (P39897 whole entry): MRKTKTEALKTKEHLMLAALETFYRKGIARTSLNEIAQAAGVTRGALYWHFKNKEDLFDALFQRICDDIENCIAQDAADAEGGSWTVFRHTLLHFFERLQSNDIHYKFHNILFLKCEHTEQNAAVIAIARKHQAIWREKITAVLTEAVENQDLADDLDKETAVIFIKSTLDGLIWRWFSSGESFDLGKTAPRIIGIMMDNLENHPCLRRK

MtrR R176E = molecular target: T2, MtrR R176E (Neisseria gonorrhoeae, UniProt P39897, R176E); experiment: biochemical; type: binding
T2 construct: Hexa-histidine tag with TEV protease cleavage site (N, cleaved yes); made in house; host or cells: E. coli Rosetta Gami B(DE3) pLysS
T2 sequence (P39897 whole entry R176E): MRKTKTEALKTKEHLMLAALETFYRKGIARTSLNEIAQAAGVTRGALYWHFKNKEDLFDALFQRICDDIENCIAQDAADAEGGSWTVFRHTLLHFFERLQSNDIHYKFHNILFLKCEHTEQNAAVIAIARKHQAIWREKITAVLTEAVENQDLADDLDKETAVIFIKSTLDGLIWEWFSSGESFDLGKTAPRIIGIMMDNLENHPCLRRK

[1] = molecular target: T3, MtrR binding to rpoH operator (27mer) (Neisseria gonorrhoeae, UniProt P39897); experiment: Fluorescence polarization based DNA binding assay, rpoH operator; conditions: rpoH 27mer + 125 µM steroid
T3 construct: Hexa-histidine tag with TEV protease cleavage site (N, cleaved yes); made in house; host or cells: E. coli Rosetta Gami B(DE3) pLysS
T3 sequence (P39897 whole entry): as the sequence (P39897 whole entry) above
Procedure: (§1) Fluorescence polarization based-DNA binding data were collected using a Panvera Beacon 2000 fluorescence polarization system (Invitrogen) and analyzed with Prism (Graphpad Software 9, 10). Purified MtrR was buffer exchanged into “DNA” binding buffer (150 mM NaCl, 20 mM Tris-HCl pH 7.5, 2.5% glycerol, 1 mM TCEP). […] The reported oligoduplexes containing the rpoH and mtrCDE binding site differ in lengths, 27mer and 21mer, respectively[17],[21]. […] BSA and dI-dC are included as carriers and to control for nonspecific DNA binding. Samples were excited at 490 nm and polarized emissions measured at 530 nm. Controls were run with no protein (DNA ± methanol, hormonal steroids) to ensure that millipolarization values were not affected by experimental conditions alone. The binding affinity of protein for DNA was determined using the following equation: P = Pf + (Pb – Pf) [M] / (Kd + [M]) where P is the measured polarization, Pf is the polarization of free DNA, Pb is the polarization of the completely bound DNA, Kd is the equilibrium dissociation constant, and M is the concentration of protein. Pb and Kd were determined by nonlinear least-squares analysis. At least three independent experimental measurements were averaged for each reported binding constant.

[2] = molecular target: T4, MtrR binding to mtrCDE operator (21mer) (Neisseria gonorrhoeae, UniProt P39897); experiment: Fluorescence polarization based DNA binding assay, mtrCDE operator; conditions: mtrCDE 21mer + 125 µM steroid
T4 construct: Hexa-histidine tag with TEV protease cleavage site (N, cleaved yes); made in house; host or cells: E. coli Rosetta Gami B(DE3) pLysS
T4 sequence (P39897 whole entry): as above
Procedure: as §1

rpoH-lacZ expression = type: cell-based, Neisseria gonorrhoeae; conditions: for Miller units, single well: individual replicate; for Miller units: plate rows 5-8 (rpoH), single well; for Plate-6 (Testosterone) Miller units, Mean / Plate-6 (Testosterone) Miller units: right (rpoH) half of sheet
[3] = 6.25 µM hormone, plate columns 1-6 (WT)
[4] = 12.5 µM hormone, plate columns 1-6 (WT)
[5] = 25 µM hormone, plate columns 1-6 (WT)

## C[C@]12CC[C@H]3[C@@H](CCC4=CC(=O)CC[C@@]43C)[C@@H]1CC[C@@H]2O [Testosterone, testosterone]
MtrR
  binding stoichiometry N (ligand per MtrR): ~ 1
MtrR; listed as TES
  binding stoichiometry N (ligand per MtrR): one molecule of steroid per MtrR monomer
MtrR; equilibrium dissociation constant (Kd), MtrR WT, 25 °C, 1% MeOH
  Kd: 2260 nM and ~2260 nM
MtrR R176E
  Kd: 3730 ± 400 nM
[1]; MtrR WT dimer 0.00 nM
  fluorescence polarization, MtrR titration: 0.00 mP
[1]; MtrR WT dimer 6.35 nM
  fluorescence polarization, MtrR titration: 2.56 mP and 4.77 mP and 2.79 mP
[1]; MtrR WT dimer 8.85 nM
  fluorescence polarization, MtrR titration: 4.03 mP and 4.45 mP
[1]; MtrR WT dimer 11.32 nM
  fluorescence polarization, MtrR titration: 4.86 mP and 6.47 mP and 4.69 mP
[1]; MtrR WT dimer 16.21 nM
  fluorescence polarization, MtrR titration: 6.33 mP and 8.37 mP and 6.42 mP
[1]; MtrR WT dimer 25.90 nM
  fluorescence polarization, MtrR titration: 9.43 mP and 8.25 mP
[1]; MtrR WT dimer 35.50 nM
  fluorescence polarization, MtrR titration: 11.51 mP and 12.65 mP and 12.17 mP
[1]; MtrR WT dimer 54.52 nM
  fluorescence polarization, MtrR titration: 15.46 mP and 15.52 mP
[1]; MtrR WT dimer 73.35 nM
  fluorescence polarization, MtrR titration: 17.83 mP and 19.00 mP and 18.19 mP
[1]; MtrR WT dimer 110.67 nM
  fluorescence polarization, MtrR titration: 21.89 mP and 23.20 mP and 21.59 mP
[1]; MtrR WT dimer 147.65 nM
  fluorescence polarization, MtrR titration: 25.36 mP and 23.99 mP
[1]; MtrR WT dimer 220.59 nM
  fluorescence polarization, MtrR titration: 26.93 mP and 29.97 mP and 27.52 mP
[1]; MtrR WT dimer 292.55 nM
  fluorescence polarization, MtrR titration: 30.66 mP and 32.37 mP and 31.12 mP
[1]; MtrR WT dimer 363.86 nM
  fluorescence polarization, MtrR titration: 32.43 mP and 34.37 mP and 33.42 mP
[1]; MtrR WT dimer 434.54 nM
  fluorescence polarization, MtrR titration: 34.93 mP and 38.17 mP and 35.29 mP
[1]; MtrR WT dimer 504.61 nM
  fluorescence polarization, MtrR titration: 36.76 mP and 39.37 mP and 37.09 mP
[1]; MtrR WT dimer 574.07 nM
  fluorescence polarization, MtrR titration: 38.43 mP and 40.67 mP and 39.72 mP
[2]; MtrR WT dimer 0.00 nM
  fluorescence polarization, MtrR titration: 0.00 mP
[2]; MtrR WT dimer 6.35 nM
  fluorescence polarization, MtrR titration: 2.61 mP and 1.77 mP and 1.84 mP
[2]; MtrR WT dimer 11.32 nM
  fluorescence polarization, MtrR titration: 5.67 mP and 3.54 mP and 4.04 mP
[2]; MtrR WT dimer 16.21 nM
  fluorescence polarization, MtrR titration: 6.61 mP and 4.54 mP and 5.44 mP
[2]; MtrR WT dimer 35.50 nM
  fluorescence polarization, MtrR titration: 8.17 mP and 7.34 mP and 6.54 mP
[2]; MtrR WT dimer 73.35 nM
  fluorescence polarization, MtrR titration: 11.31 mP and 10.71 mP and 11.67 mP
[2]; MtrR WT dimer 110.67 nM
  fluorescence polarization, MtrR titration: 14.21 mP and 12.44 mP and 14.87 mP
[2]; MtrR WT dimer 147.65 nM
  fluorescence polarization, MtrR titration: 16.64 mP and 15.47 mP and 17.31 mP
[2]; MtrR WT dimer 220.59 nM
  fluorescence polarization, MtrR titration: 21.64 mP and 18.07 mP and 21.37 mP
[2]; MtrR WT dimer 292.55 nM
  fluorescence polarization, MtrR titration: 24.51 mP and 22.87 mP and 24.21 mP
[2]; MtrR WT dimer 363.86 nM
  fluorescence polarization, MtrR titration: 27.31 mP and 26.01 mP and 26.94 mP
[2]; MtrR WT dimer 434.54 nM
  fluorescence polarization, MtrR titration: 29.54 mP and 28.57 mP and 30.57 mP
[2]; MtrR WT dimer 504.61 nM
  fluorescence polarization, MtrR titration: 32.14 mP and 30.37 mP and 33.41 mP
[2]; MtrR WT dimer 574.07 nM
  fluorescence polarization, MtrR titration: 34.11 mP and 32.41 mP and 35.04 mP
[2]; MtrR WT dimer 711.46 nM
  fluorescence polarization, MtrR titration: 38.41 mP and 36.24 mP and 38.57 mP
[2]; MtrR WT dimer 848.00 nM
  fluorescence polarization, MtrR titration: 41.31 mP and 39.27 mP and 42.47 mP
rpoH-lacZ expression; [3]
  Miller units, single well: 114 Miller units and 127 Miller units and 153 Miller units
  Miller units: 114 Miller units and 127 Miller units and 153 Miller units and 108 Miller units
rpoH-lacZ expression; 6.25 µM hormone, plate columns 1-6 (WT), mean of 4 wells
  Miller units, Mean: 125 Miller units
rpoH-lacZ expression; 6.25 µM hormone, plate columns 1-6 (WT), mean of plate rows 5-8 (rpoH)
  Miller units, Mean: 125 Miller units
rpoH-lacZ expression; 6.25 µM hormone, plate columns 7-12 (second strain not given)
  Miller units: 161 Miller units and 167 Miller units and 191 Miller units and 162 Miller units
rpoH-lacZ expression; 6.25 µM hormone, plate columns 7-12 (second strain), mean of plate rows 5-8 (rpoH)
  Miller units, Mean: 170 Miller units
rpoH-lacZ expression; 6.25 µM hormone, plate columns 7-12 (second strain, not WT)
  Miller units, single well: 161 Miller units and 167 Miller units and 191 Miller units
rpoH-lacZ expression; 6.25 µM hormone, plate columns 7-12 (second strain, not WT), mean of 4 wells
  Miller units, Mean: 170 Miller units
rpoH-lacZ expression; 6.25 µM, plate column 3, mean of plate rows 5-8
  Plate-6 (Testosterone) Miller units, Mean: 43 Miller units
rpoH-lacZ expression; 6.25 µM, plate column 3, plate rows 5-8, single wells
  Plate-6 (Testosterone) Miller units: 39 Miller units and 46 Miller units and 47 Miller units
rpoH-lacZ expression; 6.25 µM, plate column 9, mean of plate rows 5-8
  Plate-6 (Testosterone) Miller units, Mean: 64 Miller units
rpoH-lacZ expression; 6.25 µM, single wells
  Plate-6 (Testosterone) Miller units: 55 Miller units and 57 Miller units and 65 Miller units and 80 Miller units
rpoH-lacZ expression; [4]
  Miller units, single well: 120 Miller units and 124 Miller units and 149 Miller units
  Miller units: 120 Miller units and 124 Miller units and 149 Miller units and 125 Miller units
rpoH-lacZ expression; 12.5 µM hormone, plate columns 1-6 (WT), mean of 4 wells
  Miller units, Mean: 130 Miller units
rpoH-lacZ expression; 12.5 µM hormone, plate columns 1-6 (WT), mean of plate rows 5-8 (rpoH)
  Miller units, Mean: 130 Miller units
rpoH-lacZ expression; 12.5 µM hormone, plate columns 7-12 (second strain not given)
  Miller units: 161 Miller units and 177 Miller units and 186 Miller units and 176 Miller units
rpoH-lacZ expression; 12.5 µM hormone, plate columns 7-12 (second strain), mean of plate rows 5-8 (rpoH)
  Miller units, Mean: 175 Miller units
rpoH-lacZ expression; 12.5 µM hormone, plate columns 7-12 (second strain, not WT)
  Miller units, single well: 161 Miller units and 177 Miller units and 186 Miller units
rpoH-lacZ expression; 12.5 µM hormone, plate columns 7-12 (second strain, not WT), mean of 4 wells
  Miller units, Mean: 175 Miller units
rpoH-lacZ expression; 12.5 µM, plate column 4, mean of plate rows 5-8
  Plate-6 (Testosterone) Miller units, Mean: 52 Miller units
rpoH-lacZ expression; 12.5 µM, plate column 4, plate rows 5-8, single wells
  Plate-6 (Testosterone) Miller units: 51 Miller units and 50 Miller units and 56 Miller units and 52 Miller units
rpoH-lacZ expression; 12.5 µM, plate column 10, mean of plate rows 5-8
  Plate-6 (Testosterone) Miller units, Mean: 62 Miller units
rpoH-lacZ expression; 12.5 µM, plate column 10, plate rows 5-8, single wells
  Plate-6 (Testosterone) Miller units: 58 Miller units and 54 Miller units and 63 Miller units and 74 Miller units
rpoH-lacZ expression; [5]
  Miller units, single well: 127 Miller units and 137 Miller units
  Miller units: 127 Miller units and 137 Miller units and 133 Miller units
rpoH-lacZ expression; 25 µM hormone, plate columns 1-6 (WT), mean of 4 wells
  Miller units, Mean: 133 Miller units
rpoH-lacZ expression; 25 µM hormone, plate columns 1-6 (WT), mean of plate rows 5-8 (rpoH)
  Miller units, Mean: 133 Miller units
rpoH-lacZ expression; 25 µM hormone, plate columns 7-12 (second strain not given)
  Miller units: 168 Miller units and 179 Miller units and 147 Miller units and 185 Miller units
rpoH-lacZ expression; 25 µM hormone, plate columns 7-12 (second strain), mean of plate rows 5-8 (rpoH)
  Miller units, Mean: 170 Miller units
